{
  "source": "paper PMC3814675",
  "about": "“Structures of B-Lymphotropic Polyomavirus VP1 in Complex with Oligosaccharide Ligands” (PLoS Pathogens, 2013)",
  "molecules": {"B1": {"name": "B-Lymphotropic Polyomavirus (LPyV) VP1 pentamer, amino acids 28-301 (domain or fragment)", "chain": "GSHMKGGVEVLEVRTGPDAITQIEAYLNPRMGNNIPSEDLYGYSNSINTAFSKASDTPNKDTLPCYSVAVIKLPLLNEDMTCDTILMWEAVSVKTEVVGISSLVNLHQGGKYIYGSSSGCVPVQGTTYHMFAVGGEPLELQGLVASSTATYPDDVVAIKNMKPGNQGLDPKAKALLDKDGKYPVEVWCPDPSKNENTRYYGSFTGGATTPPVMQFTNSVTTVLLDENGVGPLCKGDKLFLSCADIAGVHTNYSETQVWRGLPRYFNVTLRKRIVKNPY", "notes": "non-native amino acids left at the N-terminus after thrombin cleavage of the His-tag; Major capsid protein VP1 of B-Lymphotropic Polyomavirus, K38 strain, amino acids 28-301 (truncations of 27 and 66 residues at the N- and C-termini); Cannot assemble into capsids because of the truncations; The form used for crystals had the His-tag cleaved; the glycan array used the His-tagged form (no …)"}},
  "key": {"[1]": {"target": "T1, LPyV VP1 (B-lymphotropic polyomavirus, UniProt P04010)", "T1 construct": "VP1 residues 28-301 (27 N-terminal and 66 C-terminal residues truncated), pET15b, E. coli BL21(DE3); His-tag cut with thrombin for crystals leaving GSHM (tag kept for glycan array); unassembled pentamer", "T1 sequence (P04010 29-302)": "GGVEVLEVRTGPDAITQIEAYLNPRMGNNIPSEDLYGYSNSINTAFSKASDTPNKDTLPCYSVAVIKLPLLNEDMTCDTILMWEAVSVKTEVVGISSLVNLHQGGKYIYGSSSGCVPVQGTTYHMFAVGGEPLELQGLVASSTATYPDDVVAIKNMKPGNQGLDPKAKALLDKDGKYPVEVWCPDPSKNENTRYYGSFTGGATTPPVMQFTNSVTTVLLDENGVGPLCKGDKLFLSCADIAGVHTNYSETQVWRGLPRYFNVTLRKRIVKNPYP", "assay": "X-ray crystal structure (soaked crystals), […] Å", "type": "binding", "settings": "40 mM ligand soak 10 min, 0.1 M sodium acetate pH 4.8, 0.2 M CaCl2; same cleft as 3SL; also bound on glycan array as lipid-linked probe"}, "[2]": {"target": "T1, LPyV VP1", "assay": "X-ray crystal structure (soaked crystals), […] Å", "type": "binding", "settings": "40 mM ligand soak 45 min, 0.1 M sodium acetate pH 4.8, 0.2 M CaCl2; outer-surface sialic acid cleft between two VP1 monomers; also bound on glycan array as lipid-linked probe"}, "[3]": {"target": "the molecule itself", "assay": "crystal structure; unliganded LPyV VP1 and crystals soaked with 3SL or 3SLN; vapor diffusion against isopropanol, 0.1 M sodium acetate pH 4.8, 0.2 M calcium chloride; two VP1 pentamers in the asymmetric unit"}},
  "data": [
    {"molecule": "CC(=O)N[C@H]1[C@H]([C@H](O)[C@H](O)CO)O[C@@](O[C@H]2[C@@H](O)[C@@H](CO)O[C@@H](O[C@H]3[C@H](O)[C@@H](NC(C)=O)C(O)O[C@@H]3CO)[C@@H]2O)(C(=O)O)C[C@@H]1O", "note": "(stereo partly drawn) [3SLN, Neu5Ac-α2,3-Gal-β1,4-GlcNAc]", "values": [
      {"measurement": "X-ray crystal structure (soaked crystals), 1.75 Å", "setting": "[1]", "result": "4MBY (complex with 3SL) and 4MBZ (complex with 3SLN)"}
    ]},
    {"molecule": "CC(=O)N[C@H]1[C@H]([C@H](O)[C@H](O)CO)O[C@@](O[C@H]2[C@@H](O)[C@@H](CO)O[C@@H](O[C@H]3[C@H](O)[C@@H](O)C(O)O[C@@H]3CO)[C@@H]2O)(C(=O)O)C[C@@H]1O", "note": "(stereo partly drawn) [3SL, Neu5Ac-α2,3-Gal-β1,4-Glc]", "values": [
      {"measurement": "X-ray crystal structure (soaked crystals), 1.48 Å", "setting": "[2]", "result": "entry codes 4MBX (unliganded LPyV VP1), 4MBY (complex with 3SL) and 4MBZ (complex with 3SLN)"}
    ]},
    {"molecule": "B1", "values": [
      {"measurement": "stoichiometry N", "setting": "[3]", "result": 5}
    ]}
  ]
}
